molecular target: human JAK1 (a.a. 837-1142); test: In vitro JAK kinase assay (HTRF, phosphorylation of a biotinylated peptide), JAK1; format: biochemical; conditions: measured at 1 mM ATP; JAK2 IC50 / JAK1 IC50
Method in brief: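 Phosphorylation of a biotinylated peptide by purified His-tagged JAK catalytic domains (insect-cell baculovirus expression) ran 1 hr at room temperature. After stopping with EDTA, Eu-Py20 and SA-APC were bound for 40 minutes and HTRF measured.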

Compound | IC50 Ratio JAK2/JAK1
CN(C)c1ccc(S(=O)(=O)N2CCC(N3CC(CC#N)(n4cc(-c5ncnc6[nH]ccc56)cn4)C3)CC2)cc1C#N [Example 250, 5-[(4-{3-(cyanomethyl)-3-[4-(7H-pyrrolo[2,3-d]pyrimidin-4-yl)-1H-pyrazol-1-yl]azetidin-1-yl}piperidin-1-yl)sulfonyl]-2-(dimethylamino)benzonitrile] | 4.7
N#CCC1(n2cc(-c3ncnc4[nH]ccc34)cn2)CN(C2CCN(C(=O)C3CCc4ccccc4C3)CC2)C1 (stereo not drawn) [Example 97, {3-[4-(7H-pyrrolo[2,3-d]pyrimidin-4-yl)-1H-pyrazol-1-yl]-1-[1-(1,2,3,4-tetrahydronaphthalen-2-ylcarbonyl)piperidin-4-yl]azetidin-3-yl}acetonitrile] | 2.2
CN(C)c1ccc(CN2CCC(N3CC(CC#N)(n4cc(-c5ncnc6[nH]ccc56)cn4)C3)CC2)c(F)c1C#N [Example 209, 3-[(4-{3-(Cyanomethyl)-3-[4-(7H-pyrrolo[2,3-d]pyrimidin-4-yl)-1H-pyrazol-1-yl]azetidin-1-yl}piperidin-1-yl)methyl]-6-(dimethylamino)-2-fluorobenzonitrile] | 19.0
N#CCC1(n2cc(-c3ncnc4[nH]ccc34)cn2)CN(C2CCN(C(=O)C3CCC(F)(F)CC3)CC2)C1 [Example 100, {1-{1-[(4,4-difluorocyclohexyl)carbonyl]piperidin-4-yl}-3-[4-(7H-pyrrolo[2,3-d]pyrimidin-4-yl)-1H-pyrazol-1-yl]azetidin-3-yl}acetonitrile] | 6.6
CC1CC(N2CC(CC#N)(n3cc(-c4ncnc5[nH]ccc45)cn3)C2)CCN1Cc1c(F)cccc1Cl (stereo not drawn) [Example 245, {1-[1-(2-chloro-6-fluorobenzyl)-2-methylpiperidin-4-yl]-3-[4-(7H-pyrrolo[2,3-d]pyrimidin-4-yl)-1H-pyrazol-1-yl]azetidin-3-yl}acetonitrile] | 1.5
N#CCC1(n2cc(-c3ncnc4[nH]ccc34)cn2)CN(C2CCN(C(=O)c3ccc(-c4cccc5cnccc45)c(F)c3)CC2)C1 [Example 130, {1-[1-(3-fluoro-4-isoquinolin-5-ylbenzoyl)piperidin-4-yl]-3-[4-(7H-pyrrolo[2,3-d]pyrimidin-4-yl)-1H-pyrazol-1-yl]azetidin-3-yl}acetonitrile] | 7.1
N#CCC1(n2cc(-c3ccnc4[nH]ccc34)cn2)CN(C2CCN(C(=O)Nc3ccc(C#N)cc3F)CC2)C1 [Example 312, N-(4-cyano-2-fluorophenyl)-4-{3-(cyanomethyl)-3-[4-(1H-pyrrolo[2,3-b]pyridin-4-yl)-1H-pyrazol-1-yl]azetidin-1-yl}piperidine-1-carboxamide] | 5.3
N#CCC1(n2cc(-c3ccnc4[nH]ccc34)cn2)CN(C2CCN(C(=O)c3ccc(C#N)cc3F)CC2)C1 [Example 295, 4-[(4-{3-(cyanomethyl)-3-[4-(1H-pyrrolo[2,3-b]pyridin-4-yl)-1H-pyrazol-1-yl]azetidin-1-yl}piperidin-1-yl)cabonyl]-3-fluorobenzonitrile] | 5.1
N#CCC1(n2cc(-c3ncnc4[nH]ccc34)cn2)CN(C2CCN(C(=O)c3ccc(F)c(F)c3F)CC2)C1 [Example 46, {3-[4-(7H-pyrrolo[2,3-d]pyrimidin-4-yl)-1H-pyrazol-1-yl]-1-[1-(2,3,4-trifluorobenzoyl)piperidin-4-yl]azetidin-3-yl}acetonitrile] | 6.3
N#CCC1(n2cc(-c3ncnc4[nH]ccc34)cn2)CN(C2CC3CCC(C2)N3C(=O)c2ccc(C(F)(F)F)nc2)C1 (stereo not drawn) [Example 143, [3-[4-(7H-pyrrolo[2,3-d]pyrimidin-4-yl)-1H-pyrazol-1-yl]-1-(8-{[6-(trifluoromethyl)pyridin-3-yl]carbonyl}-8-azabicyclo[3.2.1]oct-3-yl)azetidin-3-yl]acetonitrile] | 3.5
N#CCC1(n2cc(-c3c(F)cnc4[nH]ccc34)cn2)CN(C2CCN(C(=O)c3ccncc3F)CC2)C1 [Example 320, {1-[1-(3-fluoroisonicotinoyl)piperidin-4-yl]-3-[4-(5-fluoro-1H-pyrrolo[2,3-b]pyridin-4-yl)-1H-pyrazol-1-yl]azetidin-3-yl}acetonitrile] | 2.8
Cc1cc(C(=O)N2CCC(N3CC(CC#N)(n4cc(-c5ncnc6[nH]ccc56)cn4)C3)CC2)cs1 [Example 73, {1-{1-[(5-methyl-3-thienyl)carbonyl]piperidin-4-yl}-3-[4-(7H-pyrrolo[2,3-d]pyrimidin-4-yl)-1H-pyrazol-1-yl]azetidin-3-yl} acetonitrile] | 4.2
N#CCC1(n2ccc(-c3ncnc4[nH]ccc34)c2)CN(C2CCN(C(=O)c3ccc(F)c(F)c3F)CC2)C1 [Example 280, {3-[3-(7H-pyrrolo[2,3-d]pyrimidin-4-yl)-1H-pyrrol-1-yl]-1-[1-(2,3,4-trifluorobenzoyl)piperidin-4-yl]azetidin-3-yl}acetonitrile] | 7.5
N#CCC1(n2cc(-c3ncnc4[nH]ccc34)cn2)CN(C2CCN(C(=O)c3sc4cccc(F)c4c3Cl)CC2)C1 [Example 92, {1-{1-[(3-chloro-4-fluoro-1-benzothien-2-yl)carbonyl]piperidin-4-yl}-3-[4-(7H-pyrrolo[2,3-d]pyrimidin-4-yl)-1H-pyrazol-1-yl]azetidin-3-yl}acetonitrile] | 2.8
N#CCC1(n2ccc(-c3ncnc4[nH]ccc34)c2)CN(C2CCN(C(=O)c3cccc(F)c3F)CC2)C1 [Example 276, {1-[1-(2,3-difluorobenzoyl)piperidin-4-yl]-3-[3-(7H-pyrrolo[2,3-d]pyrimidin-4-yl)-1H-pyrrol-1-yl]azetidin-3-yl}acetonitrile] | 4.0
N#CCC1(n2cc(-c3ncnc4[nH]ccc34)cn2)CN(C2CCN(C(=O)C3(c4ccccc4)CC3)CC2)C1 [Example 110, {1-{1-[(1-phenylcyclopropyl)carbonyl]piperidin-4-yl}-3-[4-(7H-pyrrolo[2,3-d]pyrimidin-4-yl)-1H-pyrazol-1-yl]azetidin-3-yl}acetonitrile] | 1.6
N#CCC1(n2cc(-c3ncnc4[nH]ccc34)cn2)CN(C2CCN(C(=O)c3cc(Cl)cc(Cl)c3)CC2)C1 [Example 24, {1-[1-(3,5-dichlorobenzoyl)piperidin-4-yl]-3-[4-(7H-pyrrolo[2,3-d]pyrimidin-4-yl)-1H-pyrazol-1-yl]azetidin-3-yl}acetonitrile] | 6.6
N#CCC1(n2cc(-c3ncnc4[nH]ccc34)cn2)CN(C2CCN(Cc3c(C(F)(F)F)ccc(Cl)c3F)CC2)C1 [Example 236, {1-{1-[3-chloro-2-fluoro-6-(trifluoromethyl)benzyl]piperidin-4-yl}-3-[4-(7H-pyrrolo[2,3-d]pyrimidin-4-yl)-1H-pyrazol-1-yl]azetidin-3-yl}acetonitrile] | 5.5
COc1cccc(C(=O)N2CCC(N3CC(CC#N)(n4cc(-c5ncnc6[nH]ccc56)cn4)C3)CC2)c1 [Example 31, {1-[1-(3-methoxybenzoyl)piperidin-4-yl]-3-[4-(7H-pyrrolo[2,3-d]pyrimidin-4-yl)-1H-pyrazol-1-yl]azetidin-3-yl}acetonitrile] | 1.9
N#CCC1(n2cc(-c3c(C#N)cnc4[nH]ccc34)cn2)CN(C2CCN(C(=O)c3cc(C(F)(F)F)ncc3F)CC2)C1 [Example 356, 4-[1-(3-(Cyanomethyl)-1-{1-[5-fluoro-2-(trifluoromethyl)isonicotinoyl]piperidin-4-yl}azetidin-3-yl)-1H-pyrazol-4-yl]-1H-pyrrolo[2,3-b]pyridine-5-carbonitrile] | 5.8
N#CCC1(n2cc(-c3ncnc4[nH]ccc34)cn2)CN(C2CCN(C(=O)c3ncco3)CC2)C1 [Example 16, {1-[1-(1,3-oxazol-2-ylcarbonyl)piperidin-4-yl]-3-[4-(7H-pyrrolo[2,3-d]pyrimidin-4-yl)-1H-pyrazol-1-yl]azetidin-3-yl}acetonitrile] | 2.5
COc1c(Br)cc(C(=O)N2CCC(N3CC(CC#N)(n4cc(-c5ncnc6[nH]ccc56)cn4)C3)CC2)cc1Br [Example 50, {1-[1-(3,5-dibromo-4-methoxybenzoyl)piperidin-4-yl]-3-[4-(7H-pyrrolo[2,3-d]pyrimidin-4-yl)-1H-pyrazol-1-yl]azetidin-3-yl}acetonitrile] | 6.9
COc1cccc(F)c1C(=O)N1CCC(N2CC(CC#N)(n3cc(-c4ncnc5[nH]ccc45)cn3)C2)CC1 [Example 39, {1-[1-(2-fluoro-6-methoxybenzoyl)piperidin-4-yl]-3-[4-(7H-pyrrolo[2,3-d]pyrimidin-4-yl)-1H-pyrazol-1-yl]azetidin-3-yl}acetonitrile] | 3.2
Cc1cc(NC(=O)N2CCC(N3CC(CC#N)(n4cc(-c5ncnc6[nH]ccc56)cn4)C3)CC2)n(C)n1 [Example 197, 4-{3-(cyanomethyl)-3-[4-(7H-pyrrolo[2,3-d]pyrimidin-4-yl)-1H-pyrazol-1-yl]azetidin-1-yl}-N-(1,3-dimethyl-1H-pyrazol-5-yl)piperidine-1-carboxamide] | 3.2
N#CCC1(n2cc(-c3ncnc4[nH]ccc34)cn2)CN(C2CC3CCC(C2)N3C(=O)c2ccc(C#N)c(F)c2)C1 (stereo not drawn) [Example 140, 4-[(3-{3-(cyanomethyl)-3-[4-(7H-pyrrolo[2,3-d]pyrimidin-4-yl)-1H-pyrazol-1-yl]azetidin-1-yl}-8-azabicyclo[3.2.1]oct-8-yl)carbonyl]-2-fluorobenzonitrile] | 5.4
N#CCC1(n2cc(-c3ncnc4[nH]ccc34)cn2)CN(C2CCN(C(=O)c3cc(F)cc(Br)c3)CC2)C1 [Example 29, {1-[1-(3-bromo-5-fluorobenzoyl)piperidin-4-yl]-3-[4-(7H-pyrrolo[2,3-d]pyrimidin-4-yl)-1H-pyrazol-1-yl]azetidin-3-yl}acetonitrile] | 7.2
Cc1ccsc1C(=O)N1CCC(N2CC(CC#N)(n3cc(-c4ncnc5[nH]ccc45)cn3)C2)CC1 [Example 78, {1-{1-[(3-methyl-2-thienyl)carbonyl]piperidin-4-yl}-3-[4-(7H-pyrrolo[2,3-d]pyrimidin-4-yl)-1H-pyrazol-1-yl]azetidin-3-yl}acetonitrile] | 5.4

— patent publication US10695337B2, “Piperidin-4-yl azetidine derivatives as JAK1 inhibitors” (Incyte Corporation, priority 2010, dated 2020)
